From patent US5242924A, “Tetrazolyl-(phenoxy and phenoxyalkyl)-piperidinylpyridazines as antiviral agents” (Sterling Winthrop Inc., priority 1992, dated 1993) come the findings set out here.

The test system of this test is human rhinovirus (HRV) serotypes HRV-2, -1A, 1B, -6, -14, -21, -22, -15, -25, -30, -50, -67, -89, -86 and -41. The test is described as follows: standard plaque reduction assay, panel of human rhinovirus serotypes in HeLa (Ohio) cells. The class given is cell-based. The settings on record: MIC = 50% plaque reduction, N serotypes: 15 (Ex. 1, 2, 4, 7, 8), 13 (Ex. 3), 2 (Ex. 5, 6); for MIC50 (Rhinovirus): concentration required to inhibit 50% of the tested serotypes; for MIC80 (Rhinovirus): concentration required to inhibit 80% of the tested serotypes. On the procedure:
The MIC values were determined by a standard plaque reduction assay as follows: HeLa (Ohio) cells in monolayers were infected at a concentration of virus to give approximately 80 plaques per monolayer in the virus control (no drug present). The compound to be tested was serially diluted and included in the agar-medium overlay and in some cases, during the adsorption period as well. The MIC was determined to be that concentration of compound which reduced the number of plaques by 50% with respect to the untreated virus control.
In the standard test procedure, the compounds were tested against a panel of fifteen human rhinovirus (HRV) serotypes, namely HRV-2, -1A, 1B, -6, -14, -21, -22, -15, -25, -30, -50, -67, -89, -86 and -41. The MIC value for each rhinovirus serotype was determined, and the efficacy of each compound was determined in terms of MIC50 and MIC80 values, which is the concentration of the compound required to inhibit 50% and 80%, respectively, of the tested serotypes.
The following Table gives the testing results with the compounds of the invention. The number of serotypes (N) is indicated after the MIC80 figure.
On the technique in general: Plaque reduction counts the foci of infection that form in a cell layer.

Converted amounts (≈) assume the structure as drawn.

`CCc1ccc(N2CCC(COc3ccc(-c4nnn(C)n4)cc3)CC2)nn1` [Ex. 1]: the MIC50 (Rhinovirus) was 13.2 µg/mL (≈ 34.7 µM) and the MIC80 (Rhinovirus) is 0.281 µg/mL (≈ 0.742 µM).
For `Cc1ccc(N2CCC(COc3ccc(-c4nnn(C)n4)cc3)CC2)nn1` [Ex. 2], the MIC50 (Rhinovirus) is 13.3 µg/mL (≈ 36.5 µM) and the MIC80 (Rhinovirus) was found to be 0.141 µg/mL (≈ 0.386 µM).
Regarding `CCCc1ccc(N2CCC(Oc3ccc(-c4nnn(C)n4)cc3)CC2)nn1` [Ex. 3], the MIC50 (Rhinovirus) came to 15.7 µg/mL (≈ 41.4 µM) and the MIC80 (Rhinovirus) was 1.82 µg/mL (≈ 4.8 µM).
For `Cc1ccc(N2CCC(COc3c(C)cc(-c4nnn(C)n4)cc3C)CC2)nn1` [Ex. 4] the same measures were 20.1 µg/mL (≈ 51.2 µM) and 1.48 µg/mL (≈ 3.77 µM).
For `Cc1ccc(N2CCC(Oc3c(C)cc(-c4nnn(C)n4)cc3C)CC2)nn1` [Ex. 5], the MIC50 (Rhinovirus) stood at 0.92 µg/mL (≈ 2.42 µM) and the MIC80 (Rhinovirus) turned out to be 1.8 µg/mL (≈ 4.74 µM).
For the molecule `Cc1ccc(N2CCC(Oc3ccc(-c4nnn(C)n4)cc3)CC2)nn1` [Ex. 6], the MIC50 (Rhinovirus) stood at 0.27 µg/mL (≈ 0.768 µM) and the MIC80 (Rhinovirus) was found to be 0.52 µg/mL (≈ 1.48 µM).
In the case of `Cc1ccc(N2CCC(CCOc3ccc(-c4nnn(C)n4)cc3)CC2)nn1` [Ex. 7], the MIC50 (Rhinovirus) amounted to 6.64 µg/mL (≈ 17.5 µM) and the MIC80 (Rhinovirus) is 0.04 µg/mL (≈ 0.105 µM).
For `Cc1ccc(N2CCC(CCOc3c(C)cc(-c4nnn(C)n4)cc3C)CC2)nn1` [Ex. 8] the same measures were 16.8 µg/mL (≈ 41.3 µM) and 0.66 µg/mL (≈ 1.62 µM).
